Measurements published in patent publication US5733920A, “Inhibitors of cyclin dependent kinases” (Mitotix, Inc., priority 1995, dated 1998).

Molecular target: T1, CDK4/Cyclin D1 (Homo sapiens, UniProt P11802)
T1 construct: made in house; host or cells: insect cells (crude cell lysate)
Assay: Cyclin D1/cdk4 phosphoRb in vitro kinase assay
Type: biochemical
Settings: for IC50: insect cell lysates expressing cyclin D1 and cdk4, GST-Rb substrate, 32P-ATP, read-out: IC50, inhibition of CDK4/Cyclin D1; for relative potency of inhibition of CDK4/cyclin D1: compared with Compound 4 and Compound 1 (esters or ethers)
Description: The efficacy of a compound in inhibiting the activity of cyclin-dependent kinases can be determined by several methods well known in the art, such as a kinase assay, as described in the Examples section herein, or as described in Losiewics, M. D., et al. (1994) Biochem. Biophys. Res. Commun. 201, 589. Thus, a complex containing the cyclin-dependent kinase and a cyclin is first isolated either from a recombinant source, or immunoprecipitated from cells synchronized at the stage at which a particular cyclin-dependent kinase is present at high levels in the cell. The immunoprecipitates are then incubated in the presence of radiolabelled ATP and an appropriate substrate with various amounts of the inhibitor. The amount of radioactivity associated with the substrate protein can then be determined by various methods well known in the art. The substrate used for the kinase assay will depend on the specific kinase. Typically, histone H1 or CDK1 S1 is used as a substrate for the CDC2 kinase and the retinoblastoma protein is used as a substrate in a kinase assay for CDK4. The kinases, cyclins, and substrates used in the in vitro kinase assay can be proteins isolated from mammalian cells, or alternatively, they can be proteins produced recombinantly, such as in E. Coli.
This example is an illustration of the cyclin-dependent kinase inhibitory activity of the compounds of the invention. The kinase inhibitory activity of several compounds of the invention was determined using an in vitro kinase assay in which the kinase activity of the CDK4 kinase was measured using a Cyclin D1/cdk4 phosphoRb Assay. Briefly, the assay employs cell lysates from insect cells expressing cyclin D1 and cdk4 kinase. The cyclin/cdk lysate is combined in a microtitre-type plate along with a kinase compatible buffer, ^32 P-labeled ATP, a GST-Rb fusion protein, and the test agent. The kinase reaction is allowed to proceed with the radiolabeled ATP, then effectively stopped by the addition of a large excess of unlabeled ATP. The GST-Rb protein is sequestered on a GSH-Sepharose bead suspension, washed, resuspended in scintilant, and ^32 P activity detected in a scintillation counter. The concentration of compound at which 50% of the kinase activity was blocked (IC50) was calculated for each compound.

T1 sequence (P11802 whole entry, species assumed): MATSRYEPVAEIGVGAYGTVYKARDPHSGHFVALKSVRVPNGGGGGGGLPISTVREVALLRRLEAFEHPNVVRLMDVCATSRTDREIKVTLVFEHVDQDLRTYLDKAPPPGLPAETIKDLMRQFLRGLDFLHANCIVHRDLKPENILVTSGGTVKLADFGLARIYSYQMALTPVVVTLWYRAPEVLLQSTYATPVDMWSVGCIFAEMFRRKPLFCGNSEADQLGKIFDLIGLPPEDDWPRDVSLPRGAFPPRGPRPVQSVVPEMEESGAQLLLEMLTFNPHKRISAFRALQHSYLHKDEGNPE
T1 sequence (P24385 whole entry partner, species assumed): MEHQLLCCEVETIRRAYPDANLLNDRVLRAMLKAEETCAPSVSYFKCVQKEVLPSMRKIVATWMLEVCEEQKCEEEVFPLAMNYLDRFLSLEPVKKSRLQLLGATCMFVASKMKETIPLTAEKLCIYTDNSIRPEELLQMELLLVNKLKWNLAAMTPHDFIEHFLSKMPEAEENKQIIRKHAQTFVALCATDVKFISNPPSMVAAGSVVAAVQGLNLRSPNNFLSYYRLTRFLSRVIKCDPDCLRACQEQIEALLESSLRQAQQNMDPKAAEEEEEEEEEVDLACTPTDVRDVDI

SMILES	IC50	relative potency of inhibition of CDK4/cyclin D1
COc1cc(OC)c2c(=O)cc(-c3ccccc3Cl)oc2c1C1=CCN(C)CC1 [Compound 1]	< 250 µM	
CN1CCC(c2c(O)cc(O)c3c(=O)cc(-c4ccccc4Cl)oc23)C(=O)C1 (centres unmarked) [Compound 5]	< 50 µM	much more potent inhibitors of CDK4/cyclin D1
COc1cc(OC)c2c(=O)cc(-c3ccccc3Cl)oc2c1C1CCN(C)CC1=O (centres unmarked) [Compound 4]	230 µM	
CN1CC=C(c2c(O)cc(O)c3c(=O)cc(-c4ccccc4Cl)oc23)CC1 [Compound 3]	< 50 µM	much more potent inhibitors of CDK4/cyclin D1
COc1cc(OC)c2c(=O)cc(-c3ccccc3Cl)oc2c1[C@@H]1CN(C)CC[C@@H]1O (relative stereo) [Compound 13]	< 250 µM	
CN1CC[C@H](O)[C@H](c2c(O)cc(O)c3c(=O)cc(-c4ccccc4Cl)oc23)C1 (relative stereo) [Compound 14]	< 150 µM	
